Assays:
[1] = Ranch dressing challenge study, pH measurement; format: physicochemical; details: 0.1%, non-inoculated sample
Text: A pH measurement of non-inoculated sample material took place at every sampling date using a Mettler Toledo Seven Easy pH meter.

[2] = tested on: native flora of Lactic acid bacteria; test: Salsa sauce fresh challenge study, native lactic acid bacteria on MRS-agar; format: cell-based; details: for Cell counts on MRS-agar (native Lactic acid bacteria): Salsa sauce 4° C., FP1000-D1 1%, FP1000-D2 1%, MG200 1%, Potassium Sorbate 0.1%
Protocol: (§1) The viscous products were thoroughly mixed (2 minutes) within 10 minutes of inoculation to ensure that the inoculum was evenly distributed throughout the product. One sample remained un-inoculated and was used as negative control to monitor the native contamination flora. All samples were incubated in the dark at chilled temperature (4° C.) and assayed for yeast, plated on an appropriate yeast medium, until confirmed failure (≧1.0E+06 CFU/g) or until visible mould growth, respectively. In parallel, the growth of lactic acid bacteria and total cell count were monitored on MRS and PCA in all the batches and the non-inoculated blind, respectively.
The Salsa sauces were assayed at time zero, day 3, day 7, day 14 and were plated bi-weekly thereafter until day 92. CFU/g was detected for 3 samples from each batch inoculated with yeast. Before each sampling (closed jar), the sample was thoroughly mixed, 10 gram sample were aseptically pulled from each jar and diluted with peptone water. Each sample was stomached (1 min, normal setting) plated in duplicate onto YGC agar (VWR) and MRS (VWR), and incubated at 25° C. for 5 days and 37° C. for 3 days, respectively.

[3] = tested on: pool of 4 yeast species; test: Ranch dressing challenge study, yeast count on YGC agar; format: cell-based; details: for Cell counts on YGC-agar to determine the yeast growth: 0.1% in Ranch dressing, inoculation 500 CFU/g, 20° C.
Text: Samples of the regular ranch dressing (formula in table 24) with and without the experimental blend were produced in the Danisco Culinary Application Laboratory, Brabrand.
Each batch was split (scheme table 23) in probes of 90 gram and placed in sterile jars. 36 probes of each batch were inoculated with the desired level of yeast and 5 probes of each batch were inoculated with mould spores, respectively at a targeted inoculation rate of 500 to 1000 CFU/g.
as §1, with “incubated” for “incubated in the dark”, “ambient” for “chilled”, “(20°” for “(4°”, “(≧1.0E+05” for “(≧1.0E+06”
In total 8 strains, from Danisco's in-house Culture Collection (DCS) (Danisco A/S, Brabrand, Denmark) were employed as 1 yeast and 1 mould pool in the respective Ranch dressing. Originally, they were isolated e.g. from spoiled ketchup, mayonnaise, Salsa dressing or obtained from official culture collections such as DMSZ.
Before each experiment, a stock culture of each yeast, maintained at −86° C. in suitable broth containing glycerol 50% (v/v), was propagated through two consecutive growth cycles in suitable media (YGC-agar (VWR) pH 5.1+0.2; YM Broth (Becton, Dickinson and company) at pH 6.0±0.2 at and temperature (25° C.). The overnight cultures are diluted in saline solution to obtain working cultures. A cocktail of the yeasts was generated by adding equal cell counts of each culture into a sterile container and mixed appropriately. The yeast cocktail was diluted and inoculated into the product in order to achieve the final desired concentration. Pool counts were verified via plate count. Mould spores were prepared as follows: approx. 2 ml of sterile demineralised water was used to wash the spores off an out-grown mould cultivar (minimum 5 day old plate). This suspension is transferred to a sterile container. Pool counts were verified via plate count.
The Ranch dressing was assayed a time zero, day 3, day 7, day 14, bi-weekly thereafter until week 13 (day 90) and every 4 to 6 weeks until week 29. CFU/g was detected for 3 samples from each batch inoculated with yeast. Before each sampling (closed jar), the sample was thoroughly mixed. 10 gram sample were aseptically pulled from each jar and diluted with peptone water. Each sample was stomached (1 min, normal setting) plated in duplicate onto YGC agar (VWR), PC agar and MRS agar (VWR), and incubated at 25° C. for 5 and 7 days and 37° C. for 3 days, respectively.

[4] = tested on: pool of 4 mould species (Penicillium sp DCS 1380, Aspergillus versicolor DCS 1069, Aspergillus parasiticus DCS 709, Mucor sp DCS 1140); test: Salsa sauce fresh challenge study, mould growth; format: cell-based; details: Salsa sauce 4° C.; blends 1%
Protocol: Each batch was split (scheme table 15) in probes of 90 gram and placed in sterile jars. 21 probes of each batch were inoculated with the desired level of yeast and 5 probes of each batch were inoculated with mould spores, respectively at a targeted inoculation rate of 300 to 800 CFU/g.
as §1
Mould spores were prepared as follows: approx. 2 ml of sterile demineralised water was used to wash the spores off an out-grown mould cultivar (minimum 5 day old plate). This suspension is transferred to a sterile container. Pool counts were verified via plate count.
5 samples from each batch inoculated with mould were visually analysed for mould growth.

Structure (SMILES): C/C=C/C=C/C(=O)[O-].[K+] [Potassium Sorbate, potassium sorbate]
- pH development of the Ranch dressing batch ([1]; day 0): 4.02
- pH development of the Ranch dressing batch ([1]; day 3): 4.00
- pH development of the Ranch dressing batch ([1]; day 7): 4.02
- pH development of the Ranch dressing batch ([1]; day 14): 4.00
- pH development of the Ranch dressing batch ([1]; day 28): 3.94
- pH development of the Ranch dressing batch ([1]; day 42): 3.96
- pH development of the Ranch dressing batch ([1]; day 56): 3.96
- pH development of the Ranch dressing batch ([1]; day 64): 3.95
- pH development of the Ranch dressing batch ([1]; day 90): 3.96
- pH development of the Ranch dressing batch ([1]; day 157): 3.92
- pH development of the Ranch dressing batch ([1]; day 198): 3.94
- time after which no more colonies were detected on MRS-agar ([2]; Salsa sauce, potassium sorbate 0.1%): 42 days
- Cell counts on MRS-agar (native Lactic acid bacteria) ([2]; day 0): 4.75E+02
- Cell counts on MRS-agar (native Lactic acid bacteria) ([2]; day 2): 1.50E+03
- Cell counts on MRS-agar (native Lactic acid bacteria) ([2]; day 5): 1.40E+02
- Cell counts on MRS-agar (native Lactic acid bacteria) ([2]; day 7): 1.30E+03
- Cell counts on MRS-agar (native Lactic acid bacteria) ([2]; day 14): 5.38E+02
- Cell counts on MRS-agar (native Lactic acid bacteria) ([2]; day 28): 4.30E+01
- Cell counts on MRS-agar (native Lactic acid bacteria) ([2]; day 41): <1.00E+01
- Cell counts on MRS-agar (native Lactic acid bacteria) ([2]; day 55): <1.00E+01
- Cell counts on MRS-agar (native Lactic acid bacteria) ([2]; day 93): <1.00E+01
- initial reduction of the inoculated cell load ([3]; Ranch dressing 20° C., FP1000 D1/D2 1%, MicroGARD 200 1%, potassium sorbate 0.1%): 2 log
- Cell counts on YGC-agar to determine the yeast growth ([3]; day 0): 3.20E+02 CFU/g
- Cell counts on YGC-agar to determine the yeast growth ([3]; day 3): 1.70E+02 CFU/g
- Cell counts on YGC-agar to determine the yeast growth ([3]; day 7): 7.50E+01 CFU/g
- Cell counts on YGC-agar to determine the yeast growth ([3]; day 14): 1.00E+01 CFU/g
- Cell counts on YGC-agar to determine the yeast growth ([3]; day 28): 1.00E+01 CFU/g
- Cell counts on YGC-agar to determine the yeast growth ([3]; day 42): 1.00E+01 CFU/g
- Cell counts on YGC-agar to determine the yeast growth ([3]; day 56): 1.00E+01 CFU/g
- Cell counts on YGC-agar to determine the yeast growth ([3]; day 64): 1.00E+01 CFU/g
- Cell counts on YGC-agar to determine the yeast growth ([3]; day 90): 1.00E+01 CFU/g
- Cell counts on YGC-agar to determine the yeast growth ([3]; day 157): 1.00E+01 CFU/g
- Cell counts on YGC-agar to determine the yeast growth ([3]; day 198): 1.00E+01 CFU/g
- control of mould outgrowth (plate count in yeast inoculated samples) [4]: 12 weeks
